According to a melting point compilation (Tetko et al.):

Structure (SMILES) | melting point [°C]
CCOC(=O)c1nn(-c2ccccc2)c(=N)c(-c2nc3ccccc3s2)c1C | 148
CC(=O)N=C1C=CC(=O)C=C1 | 74.5
Cc1cc(C2(c3ccc(O)c(C)c3)OS(=O)(=O)c3ccccc32)ccc1O | 290
C=Cc1ccc(Cl)cc1 | 15.9
O=C(C1=NN(c2ccccc2)C2C(=O)N(c3ccc([N+](=O)[O-])cc3)C(=O)C12)c1ccc(Br)cc1 (configuration not stated) | 151
O=C1OC(=O)C2=C1CC1=C(CC=CC1)C2 | 204
CCOC(=O)NC1C2CCC(C)(C1O)C2(C)C (configuration not stated) | 76
C#CC1(O)CCC2C3CCC4=C(CCC(=O)C4)C3CCC21C (configuration not stated) | 170
CC(=O)N1CCN(CCN2C3=C(C(=O)CC(C)(C)C3)C(c3ccc(Cl)cc3)C3=C2CC(C)(C)CC3=O)CC1 | 213
N#Cc1c(N2CCCC2)cc(Cl)nc1N1CCCC1 | 132 to 140
CC(=O)c1c(C)c([N+](=O)[O-])c(C(C)(C)C)c([N+](=O)[O-])c1C | 136
ClCc1ccc(OCc2ccccc2)c(OCc2ccccc2)c1 | 41 to 44
OCCN(CCO)Cc1ccc(COc2ccccc2)cc1 | 88
CSC(=NC#N)SC | 54
CC(C)(C)C(O)C(Oc1ccc(-c2ccccc2)cc1)n1cncn1 (single isomer, unassigned; stereoisomer a) | 139
CNCc1sc(-c2ccccc2)nc1-c1ccccc1 | 87 to 88
C=CC1CNC(=S)O1 (configuration not stated) | 50
Cn1nc(C(=O)O)c2ccccc21 | 213 to 221
CC(C)Nc1nc(Cl)nc(NC2CC2)n1 | 167
O=C(O)C1CC(c2ccccc2)CCC1C(=O)c1ccccc1 (configuration not stated) | 184 to 187
O=[N+]([O-])c1c(N2CCCCC2)cc(Cl)c2nonc12 | 159 to 161

Structure (SMILES) | melting point [°C]
CCC1CCCCN1C(=O)COC(=O)c1ccccc1 (configuration not stated) | 54.5
CC(=Nc1ccc(N=Nc2ccccc2)cc1)c1c(O)c2ccccc2n(-c2ccccc2)c1=O | 191
COC(=O)c1ccc(N2N=N2)cc1 | 40
CSc1sc(C(N)=S)c2c1C(=O)CCC2 | 232 to 233
C=Cc1scnc1C | -15
O=C1NC(=O)C2(CCCCC2)N1 | 218 to 220
COc1cc(O)c2c(=O)c(O)c(-c3ccc(OCc4ccccc4)c(O)c3)oc2c1 | 208
C1CC2OC2CC1C1CO1 (configuration not stated) | -109
CCCOC(=O)C1=C(C)NC(C)=C(C(=O)OCCC)C1c1ccco1 | 112
O=[N+]([O-])c1cccc([N+](=O)[O-])c1CO | 85 to 95
O=C(O)CCCOc1ccc(Cl)cc1Cl | 118
COC(=O)CCC(C)C1CCC2C3C(O)C(O)C4CC(O)CCC4(C)C3CC(O)C12C (configuration not stated) | 162
O=[N+]([O-])c1ccc(CCBr)cc1 | 69
Cc1cc(Br)cc(Br)c1O | 58
Cc1c(Cl)c(C)c(Cl)c(Cl)c1Cl | 223
CC1C=CC(C2CC(=O)OC2=O)C12CC2 (configuration not stated) | 98
CSc1nn(CO)c(=S)s1 | 72 to 74
CON=C(C(=O)O)c1csc(N)n1 | 176 to 182
CC(C)CCCC(C)C1CCC2C3CC=C4CC(OC(=O)Cc5ccc(N(CCCl)CCCl)cc5)CCC4(C)C3CCC12C (configuration not stated) | 90
COc1cc(N)c(C(C)=O)cc1OC | 106
CCOC(=O)c1cc2cc3c4c(c2oc1=O)CCCN4CCC3 | 140 to 144

Now from value to compound:

melting point [°C] | Structure (SMILES)
232 | O=C1c2ccccc2C(=O)c2c1cccc2[N+](=O)[O-]
39 to 41 | COc1ccc2c(c1)CC2O (configuration not stated)
157 | COc1ccc(C(=S)Nc2ccccc2)cc1
72 to 73 | Cc1ccc(S(=O)(=O)OCC2Cc3ccccc3O2)cc1 (configuration not stated)
71 | O=Cc1cn2ccsc2n1
43 | Clc1cc(I)ccn1
180 to 182 | c1ccc2c(c1)c1cccc3ccc4cccc2c4c31
116 to 120 | O=C1CC2C(CC(OC(=O)c3ccccc3)C2CO)O1 (single isomer, unassigned; (-))
190 | CN(C)CCCN1c2ccccc2CCc2ccc(Cl)cc21
28 | COc1ccccc1CN=C=S
245 to 252 | Cc1cc(Br)c2c(c1N)C(=O)c1ccccc1C2=O
65 | Cc1ccc2ccc3ccccc3c2c1
110 | Cc1sc(N)nc1-c1ccccc1
230 | O=C(O)c1ccc(N2CCCC2)cc1
121 to 124 | NC(=S)c1csc2ccccc12
60 | CSC(SC)=C(C#N)C(=O)c1cccc(C(F)(F)F)c1
24.5 | CCCCN(C(C)=O)c1ccccc1
95 to 96 | Fc1ccc(-c2ccc(Br)cc2)cc1
240 | O=[N+]([O-])c1ccc(N/N=C/c2ccccc2)c([N+](=O)[O-])c1
44 | O=Cc1cccc(C(F)(F)F)c1Cl
67 to 68 | OCc1cccc2[nH]ccc12
151 to 152 | CC(Nc1ccccn1)=C(C#N)C(=O)c1ccccc1
161 | Nc1c(Cl)cncc1Cl

melting point [°C] | Structure (SMILES)
275 | Cc1nn(C)c2ncc(C(N)=O)c(Cl)c12
66 to 68 | CN1CCOc2cc(S(=O)(=O)Cl)ccc21
240 | COc1ccc(C(=O)C2=NN(c3ccccc3)C3C(=O)N(c4cc(Cl)ccc4Cl)C(=O)C23)cc1 (configuration not stated)
58 | O=Cc1cc([N+](=O)[O-])ccc1F
43 | CC(F)(F)C(=O)O
49 | CC(=O)c1ccc(Cl)s1
39 to 40 | CCOC(=O)Cc1ccc(O)cc1
244 to 246 | CC1(C)C(C=Cc2cc([N+](=O)[O-])cc([N+](=O)[O-])c2[O-])=[N+](Cc2ccccc2)c2ccccc21
73 | O=C(O)c1cccc(SC(F)(F)F)c1
112 to 114 | CC(=O)c1cc[nH]c1
206 to 210 | CCOC(=O)c1c(C)[nH]c2ccc(O)cc12
265 | Cc1ccc(NN=C2SC(=N)NC2=O)cc1
129 to 130 | O=C(c1ccc(Cl)cc1)c1cc2c(cc1Br)OCCO2
127 to 128 | O=C(O)c1cccc(OC(F)(F)C(F)F)c1
122 to 124 | CC(C)(C)c1ccc(C2CCC3(CC2)Cc2ccc(OS(=O)(=O)C(F)(F)F)cc2C3)cc1 (configuration not stated)
204 | O=C(O)c1cccc(-c2cc[nH]n2)c1
170 | O=[N+]([O-])c1ccc(C=Cc2cccc(CO)n2)o1
54 | CC(=O)Oc1cccc([N+](=O)[O-])c1
227 | Cc1cccc2c1C/C2=N/Nc1ccc([N+](=O)[O-])cc1[N+](=O)[O-]
163 | OC(c1ccccc1)C(O)(c1ccccc1)c1ccccc1 (configuration not stated)
74 | CC1CCC(C)(COC(=O)c2ccc(N)cc2)C1(C)C (configuration not stated)
37 to 41 | COC(=O)CCc1ccc(O)cc1
